Measured values: patent EP4813979A1, “COMPOUND FOR EGFR PROTEIN DEGRADATION AND USE THEREOF” (TYK Medicines, Inc., priority 2023, dated 2025)

Tests used:
A549 = assay: Cell anti-proliferation experiment (CTG); assay type: cell-based; settings: Homo sapiens, A549, 72 h, A549 (wild-type EGFR)
Text: (§1) H1975 has an EGFR: T790M/L858R double mutation, PC-9 has an EGFR exon 19 deletion, and HCC827 has an exon 19 deletion mutation. Baf3-19del- T790M -C797S (Baf3-DTC) is a stable Ba/F3 clone expressing exogenous EGFR gene bearing T790M, C797S, and […] triple amino acid mutations, purchased from KYinno. Baf3-L858R-T790M - C797S (Baf3-LTC) is a stable Ba/F3 clone expressing exogenous EGFR gene bearing […], T790M, and C797S triple mutations, purchased from KYinno. A549 is a wild-type EGFR, purchased from Nanjing Kebai Biotechnology. A431 is a wild-type EGFR, purchased from Shanghai Xinyu Biotechnology. CellCounting-Lite2.0, Trypsin EDTA, 37°C CO2 incubator, cell counter, EnVision Serial No. 1050454.
(§2) • A) Digested logarithmic phase cells with Trypsin EDTA, added culture medium to stop the reaction, and mixing well with a pipette to prepare a cell suspension. • B) Used Vi-cell to determine cell concentration, and prepared a suspension of 15,000-25,000 cells per milliliter according to the experimental purpose and cell characteristics. • C) After prepared the cell suspension, mixed it gently and added 100 µL to each well, so that the cell density to be tested is 1500-2500 per well.
(§3) • A) Weighed approximately 2 mg the compound and calculated the required volume of DMSO according to the formula: Compound mass (mg) * Compound purity (%) / Compound molecular weight * 1000. • B) Placed the inoculated cell culture plate into an incubator and incubated for about 24 hours. Then added compounds of varying concentrations. • C) Diluted the 10mM compound stock solution to […] with culture medium, and added the […] compound solution to the second column of the deep well plate in sequence, and added […] culture medium containing 0.5% DMSO to the third to eleventh columns. • D) Gradient dilution: Taked 125 µL solution from the second column and added it to the third column, mix well; then taked 125 µL solution from the third column and added it to the fourth column, repeated this operation until the tenth column. • E) Used a multichannel pipette, aspirated 25 µL the compound from the deep-well plate and added it to a 96-well culture plate. Repeated this process three times for each compound on the 96-well plate. This will ultimately create a concentration gradient of up to 10,000 nM at a 1:4 ratio on the 96-well plate.
(§4) • A) The effects of the compound were observed under an inverted microscope after the 96-well plate was incubated in an incubator for 72 hours. • B) Added 25 µL CTG solution to each well, placed on a shaker for 10 minutes, and read the […] of each well.
(§5) Calculate the % Cell Viability using the following formula: %Cell Viability = 100% × (Lum_Sample−Lum_LC)/(Lum_HC−Lum_LC) [formula] • Lum_HC: Cell readings from the 0.1% DMSO control group • Lum_Sample: Cell readings with added compound • Lum_LC: Blank culture medium reading
(§6) The IC50 value was obtained by curve fitting using GraphPad Prism 8 software.

H1975 = assay: Cell anti-proliferation experiment (CTG); assay type: cell-based; settings: Homo sapiens, NCI-H1975, 72 h, H1975 (EGFR T790M/L858R)
Text: as §1, §2, §3, §4, §5, §6

HCC827 = assay: Cell anti-proliferation experiment (CTG); assay type: cell-based; settings: Homo sapiens, HCC827, 72 h, HCC827 (exon 19 deletion)
Text: as §1, §2, §3, §4, §5, §6

PC-9 = assay: Cell anti-proliferation experiment (CTG); assay type: cell-based; settings: Homo sapiens, PC-9, 72 h, PC-9 (EGFR exon 19 deletion)
Text: as §1, §2, §3, §4, §5, §6

A431 = assay: Cell anti-proliferation experiment (CTG); assay type: cell-based; settings: Homo sapiens, A-431, 72 h, A431 (wild-type EGFR), class symbol
Text: as §1, §2, §3, §4, §5, §6

[1] = system: Baf3-19del- T790M -C797S (Baf3-DTC); assay: Cell anti-proliferation experiment (CTG); assay type: cell-based; settings: 72 h, class symbol
Text: as §1, §2, §3, §4, §5, §6

[2] = system: Baf3-L858R-T790M - C797S (Baf3-LTC); assay: Cell anti-proliferation experiment (CTG); assay type: cell-based; settings: 72 h, class symbol
Text: as §1, §2, §3, §4, §5, §6

[3] = Pharmacokinetic tests in male SD rats; assay type: in vivo; settings: oral gavage (po), 10 mg/kg, plasma
Experimental: Three healthy adult male SD rats, 6-8 weeks old, weighing 200-300 grams.
EDTA-Na2 anticoagulant, weighed 11.2 g EDTA-Na2 and placed it in a reagent bottle. Added 100 mL physiological saline and shaked to dissolve completely. After preparation, dispensed into 1.5 mL centrifuge tubes, each containing approximately 20 µL, for whole blood sample collection.
Accurately weighed approximately 10 mg the sample to be tested, added 10% of the converted total volume of DMSO to dissolve it, and then slowly added 90% of the total volume of 0.5% MC solvent while stirring. Sonicated and vortex to mix thoroughly to obtain a solution of the preparation that is considered to be homogeneous, with a concentration of 1 mg/mL. Prepared fresh immediately before use.
Piped 0.2 mL the sample into a 1.5 mL centrifuge tube and store at -80°C for analysis of the concentration of the drug solution.
Animals were housed in rat cages and fasted for at least 10 hours starting the day before the experiment, but water was allowed. On the day of the experiment, each animal was weighed and marked on its tail. Blank blood samples were collected before drug administration. Blood was collected via tail vein.
• Route of administration: Oral gavage (po); • Dosage concentration: 1 mg/ml; • Dosage: 10 mg/kg; • Dosage volume: 10 mL/kg; • Procedure: Hold the rat upright with your left hand wearing a bite-proof glove, insert the gavage needle into the throat through the mouth, and insert the needle when feeling no obvious resistance. Then inject the drug into the stomach.
Whole blood (0.1-0.2 ml) was collected from test animals at 0.5 h, 1 h, 2 h, 4 h, 6 h, 8 h, 12 h, and 24 h after drug administration. The samples were placed in EDTA-Na 2 anticoagulant tubes, inverted 3-4 times to mix, and centrifuged at 4°C, 2000 g for 5 min to separate the supernatant plasma. The plasma was promptly transferred to -80°C for storage until analysis. Blood was collected via tail vein.
A quantitative detection method for the analyte was established using Shimadzu liquid chromatography and Triple Quad™ 6500+AB mass spectrometry. The concentration of the parent drug in plasma was analyzed. The analytical results were controlled for variation using quality control samples, with the accuracy of the quality control samples expected to be between 80% and 120%.
The main pharmacokinetic parameters were calculated using a non-compartmental model in Winnonlin Phoenix software. These parameters included the area under the curve (AUC(0-t) and AUC(0-∞)), elimination half-life (T1/2), maximum plasma concentration (Cmax ), and time to reach maximum plasma concentration (Tmax).The results are shown in Table 3.

SMILES	IC50 (A549; class symbol)	IC50 (A549; number after the class symbol)	IC50 (H1975; class symbol)	IC50 (H1975; number after the class symbol)	IC50 (HCC827; class symbol)	IC50 (HCC827; number after the class symbol)	IC50 (PC-9; class symbol)	IC50 (PC-9; number after the class symbol)	IC50 (A431)	IC50 [1]	IC50 [2]	HL [3]	AUC(0-inf) ([3]; rat)	AUC(0-t) ([3]; rat)	Cmax ([3]; rat)	MRT last ([3]; rat)	Tmax ([3]; rat)
COc1cc(N2CCN(C(=O)CN3CCC(c4ccc5c(N6CCC(=O)NC6=O)nn(C)c5c4)CC3)CC2)ccc1Nc1ncc(Cl)c(Nc2ccccc2)n1 [DZL-2, reference compound]	100 to 1000 nM	289 nM	100 to 1000 nM	220 nM	100 to 1000 nM	265 nM	100 to 1000 nM	612 nM	–	–	–	–	–	–	–	–	–
CCc1cc(Nc2ncc(Cl)c(Nc3ccccc3C(=O)NC)n2)c(OC)cc1N1CC2(CN(C(=O)CN3CCC(c4cc5c(cc4F)c(N4CCC(=O)NC4=O)nn5C)C(F)(F)C3)C2)C1 (stereo not drawn) [TA-019]	> 1000 nM	–	< 10 nM	–	> 1000 nM	–	100 to 1000 nM	–	> 1000 nM	10 to 100 nM	10 to 100 nM	–	–	–	–	–	–
CCc1cc(Nc2ncc(Cl)c(Nc3ccccc3P3(=O)CCCC3)n2)c(OC)cc1N1CC2(CCN(C(=O)CN3CCC(c4cc5c(cc4F)c(N4CCC(=O)NC4=O)nn5C)C(F)(F)C3)CC2)C1 (stereo not drawn) [TB-005]	> 1000 nM	–	10 to 100 nM	–	100 to 1000 nM	–	> 1000 nM	–	> 1000 nM	10 to 100 nM	10 to 100 nM	–	–	–	–	–	–
CCc1cc(Nc2ncc(Br)c(Nc3ccccc3P3(=O)CCCC3)n2)c(OC)cc1N1CC2(CCN(C(=O)CN3CCC(c4cc5c(cc4F)c(N4CCC(=O)NC4=O)nn5C)CC3)CC2)C1 [TB-008]	100 to 1000 nM	–	10 to 100 nM	–	10 to 100 nM	–	100 to 1000 nM	–	100 to 1000 nM	10 to 100 nM	10 to 100 nM	–	–	–	–	–	–
CCc1cc(Nc2ncc(Cl)c(Nc3ccccc3P(C)(C)=O)n2)c(OC)cc1N1CCC(N(C)C(=O)CN2CCC(c3cc4c(cc3F)c(N3CCC(=O)NC3=O)nn4C)C(F)(F)C2)CC1 (stereo not drawn) [TC-089]	> 1000 nM	–	10 to 100 nM	–	100 to 1000 nM	–	100 to 1000 nM	–	> 1000 nM	10 to 100 nM	10 to 100 nM	–	–	–	–	–	–
CCc1cc(Nc2ncc(Cl)c(Nc3ccccc3P(C)(C)=O)n2)c(OC)cc1N1CCN(CCN2CCC(c3cc4c(cc3F)c(N3CCC(=O)NC3=O)nn4C)C(F)(F)C2)CC1 (stereo not drawn) [TC-099]	–	–	–	–	–	–	–	–	–	–	–	7.86 h	9130 ng·h/mL	7840 ng·h/mL	649 ng/mL	7.79 h	2.67 h
CCc1cc(Nc2ncc(Cl)c(Nc3ccccc3P(C)(C)=O)n2)c(OC)cc1N1CC2(CCN(C(=O)CN3CCC(c4cc5c(cc4F)c(N4CCC(=O)NC4=O)nn5C)C(F)(F)C3)C2)C1 (stereo not drawn) [TC-105]	100 to 1000 nM	–	100 to 1000 nM	–	10 to 100 nM	–	100 to 1000 nM	–	100 to 1000 nM	10 to 100 nM	10 to 100 nM	–	–	–	–	–	–
CCc1cc(Nc2ncc(Cl)c(Nc3ccccc3P(C)(C)=O)n2)c(OC)cc1N1CCC2(CCN(C(=O)CN3CCC(c4cc5c(cc4F)c(N4CCC(=O)NC4=O)nn5C)C(F)(F)C3)CC2)C1 (stereo not drawn) [TC-111]	100 to 1000 nM	–	100 to 1000 nM	–	100 to 1000 nM	–	100 to 1000 nM	–	> 1000 nM	10 to 100 nM	10 to 100 nM	–	–	–	–	–	–
CCc1cc(Nc2ncc(Cl)c(Nc3ccccc3P(C)(C)=O)n2)c(OC)nc1N1CCN(C(=O)CN2CCC(c3cc4c(cc3F)c(N3CCC(=O)NC3=O)nn4C)C(F)(F)C2)CC1 (stereo not drawn) [TC-115]	100 to 1000 nM	–	100 to 1000 nM	–	100 to 1000 nM	–	100 to 1000 nM	–	> 1000 nM	10 to 100 nM	10 to 100 nM	–	–	–	–	–	–
COc1nc(N2CCN(C(=O)CN3CCC(c4cc5c(cc4F)c(N4CCC(=O)NC4=O)nn5C)C(F)(F)C3)CC2)ccc1Nc1ncc(Cl)c(Nc2ccccc2P(C)(C)=O)n1 (stereo not drawn) [TC-125]	100 to 1000 nM	–	100 to 1000 nM	–	100 to 1000 nM	–	100 to 1000 nM	–	100 to 1000 nM	100 to 1000 nM	10 to 100 nM	–	–	–	–	–	–
CCc1cc(Nc2ncc(Cl)c(Nc3ccccc3P(C)(C)=O)n2)c(OCC(F)(F)F)nc1N1CCN(C(=O)CN2CCC(c3cc4c(cc3F)c(N3CCC(=O)NC3=O)nn4C)C(F)(F)C2)CC1 (stereo not drawn) [TC-127]	> 1000 nM	–	100 to 1000 nM	–	100 to 1000 nM	–	> 1000 nM	–	> 1000 nM	10 to 100 nM	10 to 100 nM	–	–	–	–	–	–
CCc1cc(Nc2ncc(Cl)c(Nc3ccccc3P(C)(C)=O)n2)c2c(c1N1CCN(C(=O)CN3CCC(c4cc5c(cc4F)c(N4CCC(=O)NC4=O)nn5C)C(F)(F)C3)CC1)CCO2 (stereo not drawn) [TC-135]	> 1000 nM	–	10 to 100 nM	–	100 to 1000 nM	–	> 1000 nM	–	> 1000 nM	< 10 nM	< 10 nM	–	–	–	–	–	–
